Species: Rattus norvegicus
Assay: DrugMatrix - Regimen: Daily Repeat
Assay type: toxicity, organism-based, Sprague-Dawley
Set-up: regimen Daily Repeat, gender Male, age 6-8 weeks
Conditions: in vivo, ip, 60 mg/kg, route intraperitoneal, dose level High, vehicle 100 % PBS; for BASOPHIL / EOSINOPHIL / ERYTHROCYTE COUNT / HEMATOCRIT / HEMOGLOBIN / LEUKOCYTE COUNT / LYMPHOCYTE / MEAN CORPUSCULAR HEMOGLOBIN / MEAN CORPUSCULAR HEMOGLOBIN CONCENTRATION / MEAN CORPUSCULAR VOLUME / MONOCYTE / NEUTROPHIL / PLATELET COUNT: tissue Blood; for ALANINE AMINOTRANSFERASE / ALBUMIN / ALKALINE PHOSPHATASE / ASPARTATE AMINOTRANSFERASE / BLOOD UREA NITROGEN / CARBON DIOXIDE / CHLORIDE / CHOLESTEROL / CREATINE PHOSPHOKINASE / CREATININE / GLUCOSE / LACTATE DEHYDROGENASE / LIPASE / PHOSPHORUS / POTASSIUM / SODIUM / TOTAL BILIRUBIN / TOTAL PROTEIN / URIC ACID: tissue Plasma

SMILES: C[C@H]1C(=O)O[C@@H]2CCN3CC=C(COC(=O)[C@](C)(O)[C@]1(C)O)[C@H]23 [MONOCROTALINE]
- BASOPHIL (72 h, time 3 day): 1.7%
- EOSINOPHIL (72 h, time 3 day): 1%
- ERYTHROCYTE COUNT (72 h, time 3 day): 6.77 x10E6/uL
- HEMATOCRIT (72 h, time 3 day): 46.53%
- HEMOGLOBIN (72 h, time 3 day): 14.7 G/DL
- LEUKOCYTE COUNT (72 h, time 3 day): 8.87 x10E3/uL
- LYMPHOCYTE (72 h, time 3 day): 84.3%
- MEAN CORPUSCULAR HEMOGLOBIN (72 h, time 3 day): 21.73 pg
- MEAN CORPUSCULAR HEMOGLOBIN CONCENTRATION (72 h, time 3 day): 31.63 G/DL
- MEAN CORPUSCULAR VOLUME (72 h, time 3 day): 68.73 fL
- MONOCYTE (72 h, time 3 day): 1.9%
- NEUTROPHIL (72 h, time 3 day): 9.57%
- PLATELET COUNT (72 h, time 3 day): 1156.67 x10E3/uL
- ALANINE AMINOTRANSFERASE (72 h, time 3 day): 33.67 u/L
- ALBUMIN (72 h, time 3 day): 4.27 G/DL
- ALKALINE PHOSPHATASE (72 h, time 3 day): 425.33 u/L
- ASPARTATE AMINOTRANSFERASE (72 h, time 3 day): 77.33 u/L
- BLOOD UREA NITROGEN (72 h, time 3 day): 16 mg/dL
- CARBON DIOXIDE (72 h, time 3 day): 30 mmol/L
- CHLORIDE (72 h, time 3 day): 104.33 MEQ/L
- CHOLESTEROL (72 h, time 3 day): 79 mg/dL
- CREATINE PHOSPHOKINASE (72 h, time 3 day): 394.33 u/L
- CREATININE (72 h, time 3 day): 0.47 mg/dL
- GLUCOSE (72 h, time 3 day): 166.33 mg/dL
- LACTATE DEHYDROGENASE (72 h, time 3 day): 66 u/L
- LIPASE (72 h, time 3 day): 14.67 u/L
- PHOSPHORUS (72 h, time 3 day): 12.57 mg/dL
- POTASSIUM (72 h, time 3 day): 7.2 MEQ/L
- SODIUM (72 h, time 3 day): 148.33 MEQ/L
- TOTAL BILIRUBIN (72 h, time 3 day): 0.47 mg/dL
- TOTAL PROTEIN (72 h, time 3 day): 6.57 G/DL
- URIC ACID (72 h, time 3 day): 1.77 mg/dL
- BASOPHIL (120 h, time 5 day): 0.4%
- EOSINOPHIL (120 h, time 5 day): 0.6%
- ERYTHROCYTE COUNT (120 h, time 5 day): 7.1 x10E6/uL
- HEMATOCRIT (120 h, time 5 day): 48.3%
- HEMOGLOBIN (120 h, time 5 day): 14.93 G/DL
- LEUKOCYTE COUNT (120 h, time 5 day): 10.69 x10E3/uL
- LYMPHOCYTE (120 h, time 5 day): 91.33%
- MEAN CORPUSCULAR HEMOGLOBIN (120 h, time 5 day): 21.03 pg
- MEAN CORPUSCULAR HEMOGLOBIN CONCENTRATION (120 h, time 5 day): 30.93 G/DL
- MEAN CORPUSCULAR VOLUME (120 h, time 5 day): 68.03 fL
- MONOCYTE (120 h, time 5 day): 1.63%
- NEUTROPHIL (120 h, time 5 day): 5.2%
- PLATELET COUNT (120 h, time 5 day): 1323.67 x10E3/uL
- ALANINE AMINOTRANSFERASE (120 h, time 5 day): 48 u/L
- ALBUMIN (120 h, time 5 day): 4.1 G/DL
- ALKALINE PHOSPHATASE (120 h, time 5 day): 488 u/L
- ASPARTATE AMINOTRANSFERASE (120 h, time 5 day): 69 u/L
- BLOOD UREA NITROGEN (120 h, time 5 day): 13 mg/dL
- CARBON DIOXIDE (120 h, time 5 day): 30 mmol/L
- CHLORIDE (120 h, time 5 day): 108 MEQ/L
- CHOLESTEROL (120 h, time 5 day): 65.67 mg/dL
- CREATINE PHOSPHOKINASE (120 h, time 5 day): 139 u/L
- CREATININE (120 h, time 5 day): 0.23 mg/dL
- GLUCOSE (120 h, time 5 day): 152.33 mg/dL
- LACTATE DEHYDROGENASE (120 h, time 5 day): 44.67 u/L
- LIPASE (120 h, time 5 day): 13.33 u/L
- PHOSPHORUS (120 h, time 5 day): 14.7 mg/dL
- POTASSIUM (120 h, time 5 day): 6.77 MEQ/L
- SODIUM (120 h, time 5 day): 155 MEQ/L
- TOTAL BILIRUBIN (120 h, time 5 day): 0.2 mg/dL
- TOTAL PROTEIN (120 h, time 5 day): 6.33 G/DL
- URIC ACID (120 h, time 5 day): 1.63 mg/dL
- BASOPHIL ([…], time 14 day): 0.38%
- EOSINOPHIL ([…], time 14 day): 0.48%
- ERYTHROCYTE COUNT ([…], time 14 day): 8.25 x10E6/uL
- HEMATOCRIT ([…], time 14 day): 49.54%
- HEMOGLOBIN ([…], time 14 day): 16.32 G/DL
- LEUKOCYTE COUNT ([…], time 14 day): 14.35 x10E3/uL
- LYMPHOCYTE ([…], time 14 day): 85.94%
- MEAN CORPUSCULAR HEMOGLOBIN ([…], time 14 day): 19.8 pg
- MEAN CORPUSCULAR HEMOGLOBIN CONCENTRATION ([…], time 14 day): 32.96 G/DL
- MEAN CORPUSCULAR VOLUME ([…], time 14 day): 60.04 fL
- MONOCYTE ([…], time 14 day): 1.94%
- NEUTROPHIL ([…], time 14 day): 9.64%
- PLATELET COUNT ([…], time 14 day): 1232.8 x10E3/uL
- ALANINE AMINOTRANSFERASE ([…], time 14 day): 40.6 u/L
- ALBUMIN ([…], time 14 day): 4.46 G/DL
- ALKALINE PHOSPHATASE ([…], time 14 day): 403.4 u/L
- ASPARTATE AMINOTRANSFERASE ([…], time 14 day): 73.6 u/L
- BLOOD UREA NITROGEN ([…], time 14 day): 15.2 mg/dL
- CARBON DIOXIDE ([…], time 14 day): 30.8 mmol/L
- CHLORIDE ([…], time 14 day): 102.2 MEQ/L
- CHOLESTEROL ([…], time 14 day): 89.2 mg/dL
- CREATINE PHOSPHOKINASE ([…], time 14 day): 155.8 u/L
- CREATININE ([…], time 14 day): 0.44 mg/dL
- GLUCOSE ([…], time 14 day): 145 mg/dL
- LACTATE DEHYDROGENASE ([…], time 14 day): 118.6 u/L
- LIPASE ([…], time 14 day): 18.2 u/L
- PHOSPHORUS ([…], time 14 day): 9.42 mg/dL
- POTASSIUM ([…], time 14 day): 6.64 MEQ/L
- SODIUM ([…], time 14 day): 148.8 MEQ/L
- TOTAL BILIRUBIN ([…], time 14 day): 0.56 mg/dL
- TOTAL PROTEIN ([…], time 14 day): 7.2 G/DL
- URIC ACID ([…], time 14 day): 2.16 mg/dL

Source: ChEMBL document CHEMBL3885881, “DrugMatrix”
